Measurements from US9969715B2, “Compounds useful for treating cancer” (ABIVAX, priority 2012, dated 2018).
Where two headings read alike, the source gives them in different places.

Assays:
[1] = biological target: T1, hERG channel (Homo sapiens, UniProt Q12809); assay: hERG channel inhibition (electrophysiology, hERG-transfected HEK293 cells); assay type: cell-based; conditions: for % hERG inhibition in transfected HEK (n = 3) at 1 μM av: 1 μM compound; for % hERG inhibition in transfected HEK (n = 3) at 10 μM av: 10 μM compound; for hERG inhibition compared to comparative compound (in words): 1 vs C88 (112), 3 vs 583, 4 vs 585
T1 construct: host or cells: HEK293
T1 sequence (Q12809 whole entry): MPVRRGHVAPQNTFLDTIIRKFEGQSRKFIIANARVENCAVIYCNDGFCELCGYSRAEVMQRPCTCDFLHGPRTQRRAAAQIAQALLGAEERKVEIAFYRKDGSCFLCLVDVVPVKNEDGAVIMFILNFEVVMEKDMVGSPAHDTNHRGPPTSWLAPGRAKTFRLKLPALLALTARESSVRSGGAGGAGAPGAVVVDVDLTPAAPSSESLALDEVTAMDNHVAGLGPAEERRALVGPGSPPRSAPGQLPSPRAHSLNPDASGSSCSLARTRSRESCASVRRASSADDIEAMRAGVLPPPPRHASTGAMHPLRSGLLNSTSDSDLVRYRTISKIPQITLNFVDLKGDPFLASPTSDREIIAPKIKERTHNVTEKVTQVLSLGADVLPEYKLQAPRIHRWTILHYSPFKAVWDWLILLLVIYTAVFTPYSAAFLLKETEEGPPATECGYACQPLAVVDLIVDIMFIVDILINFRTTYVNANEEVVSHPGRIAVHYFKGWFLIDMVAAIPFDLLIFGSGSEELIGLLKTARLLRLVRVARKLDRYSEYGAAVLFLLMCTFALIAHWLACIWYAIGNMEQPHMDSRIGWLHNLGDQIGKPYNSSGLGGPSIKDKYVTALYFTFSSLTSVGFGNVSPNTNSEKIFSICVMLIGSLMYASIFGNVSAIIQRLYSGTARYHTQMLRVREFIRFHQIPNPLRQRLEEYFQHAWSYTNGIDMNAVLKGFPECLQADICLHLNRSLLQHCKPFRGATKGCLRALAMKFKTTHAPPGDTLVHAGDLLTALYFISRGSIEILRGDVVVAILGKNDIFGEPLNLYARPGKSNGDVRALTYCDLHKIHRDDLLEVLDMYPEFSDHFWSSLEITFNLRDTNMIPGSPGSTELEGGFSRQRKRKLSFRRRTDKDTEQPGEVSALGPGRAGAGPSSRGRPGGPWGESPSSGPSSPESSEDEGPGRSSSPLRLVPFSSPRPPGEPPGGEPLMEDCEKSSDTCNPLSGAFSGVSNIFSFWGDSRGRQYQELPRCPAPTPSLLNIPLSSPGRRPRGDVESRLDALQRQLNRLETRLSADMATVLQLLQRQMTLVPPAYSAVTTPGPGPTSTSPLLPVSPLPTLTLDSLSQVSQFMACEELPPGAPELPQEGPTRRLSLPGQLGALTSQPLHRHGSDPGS
Protocol: Performed by Porsolt & Partners (Z. A. de Glatigné, 53940 Le Genest-Saint-Isle, France). Briefly, each 3 hERG-transfected HEK293 cells were superfused with the compounds at 1 and 10 μM, and the hERG channel current was measured by electrophysiology, as described by Crumb et al., J. Pharmacol. Exp. Ther. 2000.

[2] = system: MDA-MB231-luc-D3H2LN cells; assay: Viability (MTS) assay on the cells in collagen under invasion assay conditions; assay type: cell-based, human; conditions: loss of viability at the concentration giving 0.5 × effect of 10 μM Y-27632, invasion assay conditions
Summary of the method: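 Run on cells embedded in collagen after a further 24 h, on serum-starved cells and in parallel on cells in 10% FBS. MTS reagent 3–4 h at 37 °C, absorbance at 490 nm; background-corrected signals expressed as % of untreated control.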

[3] = system: MDA-MB231-luc-D3H2LN cells; assay: Toxicity assay under normal cell culture conditions (MTS), MDA cells; assay type: cell-based, human; conditions: for toxicity on MDA-MB231 compared to comparative compound (in words): 1 vs C88 (112), 3 vs 583, 4 vs 585; for MDA tox: 50% tox. at (μM) av: MDA-MB231-luc-D3H2LN cells, MEM+10% FBS, 72 h incubation, MTS
Summary of the method: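 Under normal culture conditions (MEM with 10% FBS), MDA-MB231-luc-D3H2LN cells (2000/well) were exposed to compound concentration series for 72 h. Viability measured by MTS assay. Value is the concentration giving 50% toxicity.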

[4] = system: MDA-MB231-luc-D3H2LN cells; assay: Invasion of MDA-MB231-D3H2LN cells into collagen (example 15 = procedure 2, 48 h drug pre-incubation); assay type: cell-based; conditions: for invasiveness inhibition compared to comparative compound (in words): 1 vs C88 (112), 4 vs 585; for anti-invasive activity (in words): second set of experiments, procedure 2 (example 15)
Summary of the method: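 Cells embedded at the bottom of collagen gels were pre-treated 48 h with compound in 0.025% FBS, then stimulated with 5% FBS for 24 h at 37° C. Nuclei were imaged at 0, 25 and 50 µm to give mean invasion distance, with MTS viability also measured. Value is the concentration giving 50% of the effect of 10 µM Y-27632.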

[5] = system: human PBMC; assay: Toxicity assay under normal cell culture conditions (MTS), PBMC; assay type: cell-based; conditions: for toxicity on PBMC compared to comparative compound (in words): 1 vs C88 (112), 3 vs 583, 4 vs 585; for PBMC tox.: 50% tox. at (μM) av: human PBMC, RPMI+10% FBS+IL-2, 72 h incubation, MTS
Summary of the method: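 Human PBMC (75000/well) in RPMI + 10% FBS + IL-2 were exposed to compounds for 72 h, with viability read by MTS. Concentration-response curves gave the concentration producing 50% toxicity.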

[6] = system: MDA-MB231-luc-D3H2LN cells; assay: Invasion of MDA-MB231-D3H2LN cells into collagen (procedure 1, 24 h drug incubation); assay type: cell-based, human; conditions: for anti-invasive activity (in words): first set of experiments, procedure 1; for Invasion av.: number of cells per valid field at 50 μm, fold inhibitory effect compared to 10 μM Y-27632: procedure 1, first set of experiments
Protocol: It is to be noted that both Procedures 1 and 2 are invasion assays to test effect of drug compounds on invasion. They are both fully identical except for the time of incubation with the drug.
Here, invasion (into collagen) is the number of cells per valid field at 50 μm fold inhibitory effect compared to 10 μM Y-27632.
Standard Operating Procedure 1:
Said procedure is as described in example 15 except with respect to (i) the last step during day 1 “preparation of the invasion assay” and “treatment with the drugs” and days 2 and 3 which are detailed hereinafter and (ii) the fact that no concentration nor toxicity is determined at the end.
add each 33 μl/well of the 4× concentrated drug solutions in MEM+0.1% FBS to the corresponding wells in all three plates, according to the plate maps above
incubate 24 h at 37° C./5% CO2
The analysis as performed in day 5 in example 15 is performed exactly under the same conditions in day 3 in the framework of the present procedure 1.

[7] = concentration giving 50% of the anti-invasive effect of 10 μM Y-27632, 48 h pre-incubation, 24 h with 5% FBS, read-out: MDA: Inhib. of invasion: 0.5 × eff. of 10 μM Y-27632 at (μM) av
[8] = Homo sapiens, procedure 2, second set of experiments, read-out: Invasion Av.: concentration of the compound necessary to reach 50% of the inhibition effect compared to 10 μM Y-27632

IC50 [4, 7] [µM]	IC50 [4, 8] [µM]	Structure (SMILES)	% hERG inhibition in transfected HEK (n = 3) at 1 μM av [1] [%]	% hERG inhibition in transfected HEK (n = 3) at 10 μM av [1] [%]	hERG inhibition compared to comparative compound (in words) [1]	(+ MDA tox. under these cond.) % tox [2] [%]	toxicity on MDA-MB231 compared to comparative compound (in words) [3]	MDA tox: 50% tox. at (μM) av [3] [µM]	invasiveness inhibition compared to comparative compound (in words) [4]	toxicity on PBMC compared to comparative compound (in words) [5]	PBMC tox.: 50% tox. at (μM) av [5] [µM]	anti-invasive activity (in words) [6]	Invasion av.: number of cells per valid field at 50 μm, fold inhibitory effect compared to 10 μM Y-27632 [6]	anti-invasive activity (in words) [4]
0.21		O=C(NCCCN1CCCC1)c1cccc(Nc2cccc(C(=O)Nc3ccncc3)c2)c1 [Compound 4, N-(pyridin-4-yl)-3-((3-((3-(pyrrolidin-1-yl)propyl)carbamoyl)phenyl)amino)benzamide]	6	59	less hERG inhibition	<10	less toxic	54	more potent	less toxic	42			
0.25		O=C(NCCCN1CCOCC1)c1cccc(Nc2cccc(/C=C/c3ccncc3)c2)c1 [Compound 583, reference compound]	36	74		<10		21			18			
0.3		O=C(NCCCN1CCCC1)c1cccc(Nc2cccc(/C=C/c3ccncc3)c2)c1 [Compound 585, reference compound]	42	77		<10		10			9			
0.39	0.39	CCN(CC)CCCNC(=O)c1cccc(Nc2cccc(/C=C/c3ccncc3)c2)c1 [Compound C88, reference compound]	55	92		<10		10			10	anti-invasive activity was detected	1	anti-invasive activity is detected
0.13	0.13	CCN(CC)CCCNC(=O)c1cccc(Nc2cccc(C(=O)Nc3ccncc3)c2)c1 [Compound 1, N-(3-(diethylamino)propyl)-3-((3-(pyridin-4-ylcarbamoyl)phenyl)amino)benzamide]	13	47	less hERG inhibition	<10	less toxic	46	more potent	less toxic	51			anti-invasive activity is detected
		CCN(CC)CCCNC(=O)c1cccc(Nc2cccc(NC(=O)c3cccnc3)c2)c1 [FMMB46.1]										no effect was observed	0.02	
1.31		CCN(CC)CCCNS(=O)(=O)c1cccc(Nc2cccc(C(=O)Nc3ccncc3)c2)c1 [Compound 5, 3-((3-(N-(3-(diethylamino)propyl)sulfamoyl)phenyl)amino)-N-(pyridin-4-yl)benzamide]	1	29		<10		68			74			
0.29		O=C(NCCCN1CCOCC1)c1cccc(Nc2cccc(C(=O)Nc3ccncc3)c2)c1 [Compound 3, N-(3-morpholinopropyl)-3-((3-(pyridin-4-ylcarbamoyl)phenyl)amino)benzamide]	14	54	less hERG inhibition	<10	less toxic	51		less toxic	51			
0.46		O=C(Nc1ccncc1)c1cccc(Nc2cccc(S(=O)(=O)NCCCN3CCOCC3)c2)c1 [Compound 12, 3-((3-(N-(3-morpholinopropyl)sulfamoyl)phenyl)amino)-N-(pyridin-4-yl)benzamide]	11	55		<10		60			54			
0.55		CCN(CC)CCCNC(=O)c1cccc(Nc2cccc(C(=O)Nc3ccncc3)c2)n1 [Compound 35, N-(3-(diethylamino)propyl)-6-((3-(pyridin-4-ylcarbamoyl)phenyl)amino)picolinamide]	4	30		<10		59			128			
0.28		O=C(Nc1ccncc1)c1cccc(Nc2cccc(S(=O)(=O)NCCCN3CCCCC3)c2)c1 [Compound 9, 3-((3-(N-(3-(piperidin-1-yl)propyl)sulfamoyl)phenyl)amino)-N-(pyridin-4-yl)benzamide]	5	50		<10		44			36			
1.5		CCN(CC)CCCNC(=O)c1ccnc(Nc2cccc(C(=O)Nc3ccncn3)c2)c1 [Compound 41, N-(3-(diethylamino)propyl)-2-((3-(pyrimidin-4-ylcarbamoyl)phenyl)amino)isonicotinamide]	8	53		<10		≥80			>100			
0.75		CCN(CC)CCCNC(=O)c1cccc(Nc2cccc(C(=O)Nc3ccncn3)c2)n1 [Compound 40, N-(3-(diethylamino)propyl)-6-((3-(pyrimidin-4-ylcarbamoyl)phenyl)amino)picolinamide]	26	59		<10		73			>100			
